Measured values reported in ChEMBL document CHEMBL1201862, “PubChem BioAssay data set” (2004).
The source made the active and inactive calls.

Experiments:
Leucine aminopeptidase = molecular target: T1, Leucine aminopeptidase (Plasmodium falciparum 3D7, UniProt Q8IL11); test: P. falciparum M17LAP inhibitors, primary screen, biochemical, fluorogenic H-Leu-NHMec substrate, 1536-well (AID 1619); type: functional
T1 sequence (Q8IL11 whole entry): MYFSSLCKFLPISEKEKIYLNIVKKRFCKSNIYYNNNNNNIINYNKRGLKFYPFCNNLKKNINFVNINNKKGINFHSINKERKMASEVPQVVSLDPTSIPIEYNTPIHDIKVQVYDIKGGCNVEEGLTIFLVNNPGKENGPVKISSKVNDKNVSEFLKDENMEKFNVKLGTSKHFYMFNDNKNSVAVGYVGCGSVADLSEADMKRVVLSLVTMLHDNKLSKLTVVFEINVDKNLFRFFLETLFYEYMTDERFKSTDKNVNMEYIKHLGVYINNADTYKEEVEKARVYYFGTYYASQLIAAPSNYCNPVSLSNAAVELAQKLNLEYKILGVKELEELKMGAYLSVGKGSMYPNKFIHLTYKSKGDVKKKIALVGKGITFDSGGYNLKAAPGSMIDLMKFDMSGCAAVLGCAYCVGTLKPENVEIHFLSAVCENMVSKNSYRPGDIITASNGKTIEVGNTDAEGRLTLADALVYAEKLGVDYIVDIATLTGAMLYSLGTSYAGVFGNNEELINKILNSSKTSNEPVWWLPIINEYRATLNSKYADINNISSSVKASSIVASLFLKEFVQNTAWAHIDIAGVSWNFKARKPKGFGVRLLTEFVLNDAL

Fatty acid synthase [1] = molecular target: T2, Fatty acid synthase (Homo sapiens, UniProt P49327); test: FAS thioesterase domain inhibitors, dose response, biochemical, endpoint fluorescence intensity, uHTS hits (AID 624327); type: functional;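 also: fluorescence from hydrolysis of an O-methyl fluorescein acyl ester substrate by the enzyme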
T2 sequence (P49327 whole entry, the tested form may be a part): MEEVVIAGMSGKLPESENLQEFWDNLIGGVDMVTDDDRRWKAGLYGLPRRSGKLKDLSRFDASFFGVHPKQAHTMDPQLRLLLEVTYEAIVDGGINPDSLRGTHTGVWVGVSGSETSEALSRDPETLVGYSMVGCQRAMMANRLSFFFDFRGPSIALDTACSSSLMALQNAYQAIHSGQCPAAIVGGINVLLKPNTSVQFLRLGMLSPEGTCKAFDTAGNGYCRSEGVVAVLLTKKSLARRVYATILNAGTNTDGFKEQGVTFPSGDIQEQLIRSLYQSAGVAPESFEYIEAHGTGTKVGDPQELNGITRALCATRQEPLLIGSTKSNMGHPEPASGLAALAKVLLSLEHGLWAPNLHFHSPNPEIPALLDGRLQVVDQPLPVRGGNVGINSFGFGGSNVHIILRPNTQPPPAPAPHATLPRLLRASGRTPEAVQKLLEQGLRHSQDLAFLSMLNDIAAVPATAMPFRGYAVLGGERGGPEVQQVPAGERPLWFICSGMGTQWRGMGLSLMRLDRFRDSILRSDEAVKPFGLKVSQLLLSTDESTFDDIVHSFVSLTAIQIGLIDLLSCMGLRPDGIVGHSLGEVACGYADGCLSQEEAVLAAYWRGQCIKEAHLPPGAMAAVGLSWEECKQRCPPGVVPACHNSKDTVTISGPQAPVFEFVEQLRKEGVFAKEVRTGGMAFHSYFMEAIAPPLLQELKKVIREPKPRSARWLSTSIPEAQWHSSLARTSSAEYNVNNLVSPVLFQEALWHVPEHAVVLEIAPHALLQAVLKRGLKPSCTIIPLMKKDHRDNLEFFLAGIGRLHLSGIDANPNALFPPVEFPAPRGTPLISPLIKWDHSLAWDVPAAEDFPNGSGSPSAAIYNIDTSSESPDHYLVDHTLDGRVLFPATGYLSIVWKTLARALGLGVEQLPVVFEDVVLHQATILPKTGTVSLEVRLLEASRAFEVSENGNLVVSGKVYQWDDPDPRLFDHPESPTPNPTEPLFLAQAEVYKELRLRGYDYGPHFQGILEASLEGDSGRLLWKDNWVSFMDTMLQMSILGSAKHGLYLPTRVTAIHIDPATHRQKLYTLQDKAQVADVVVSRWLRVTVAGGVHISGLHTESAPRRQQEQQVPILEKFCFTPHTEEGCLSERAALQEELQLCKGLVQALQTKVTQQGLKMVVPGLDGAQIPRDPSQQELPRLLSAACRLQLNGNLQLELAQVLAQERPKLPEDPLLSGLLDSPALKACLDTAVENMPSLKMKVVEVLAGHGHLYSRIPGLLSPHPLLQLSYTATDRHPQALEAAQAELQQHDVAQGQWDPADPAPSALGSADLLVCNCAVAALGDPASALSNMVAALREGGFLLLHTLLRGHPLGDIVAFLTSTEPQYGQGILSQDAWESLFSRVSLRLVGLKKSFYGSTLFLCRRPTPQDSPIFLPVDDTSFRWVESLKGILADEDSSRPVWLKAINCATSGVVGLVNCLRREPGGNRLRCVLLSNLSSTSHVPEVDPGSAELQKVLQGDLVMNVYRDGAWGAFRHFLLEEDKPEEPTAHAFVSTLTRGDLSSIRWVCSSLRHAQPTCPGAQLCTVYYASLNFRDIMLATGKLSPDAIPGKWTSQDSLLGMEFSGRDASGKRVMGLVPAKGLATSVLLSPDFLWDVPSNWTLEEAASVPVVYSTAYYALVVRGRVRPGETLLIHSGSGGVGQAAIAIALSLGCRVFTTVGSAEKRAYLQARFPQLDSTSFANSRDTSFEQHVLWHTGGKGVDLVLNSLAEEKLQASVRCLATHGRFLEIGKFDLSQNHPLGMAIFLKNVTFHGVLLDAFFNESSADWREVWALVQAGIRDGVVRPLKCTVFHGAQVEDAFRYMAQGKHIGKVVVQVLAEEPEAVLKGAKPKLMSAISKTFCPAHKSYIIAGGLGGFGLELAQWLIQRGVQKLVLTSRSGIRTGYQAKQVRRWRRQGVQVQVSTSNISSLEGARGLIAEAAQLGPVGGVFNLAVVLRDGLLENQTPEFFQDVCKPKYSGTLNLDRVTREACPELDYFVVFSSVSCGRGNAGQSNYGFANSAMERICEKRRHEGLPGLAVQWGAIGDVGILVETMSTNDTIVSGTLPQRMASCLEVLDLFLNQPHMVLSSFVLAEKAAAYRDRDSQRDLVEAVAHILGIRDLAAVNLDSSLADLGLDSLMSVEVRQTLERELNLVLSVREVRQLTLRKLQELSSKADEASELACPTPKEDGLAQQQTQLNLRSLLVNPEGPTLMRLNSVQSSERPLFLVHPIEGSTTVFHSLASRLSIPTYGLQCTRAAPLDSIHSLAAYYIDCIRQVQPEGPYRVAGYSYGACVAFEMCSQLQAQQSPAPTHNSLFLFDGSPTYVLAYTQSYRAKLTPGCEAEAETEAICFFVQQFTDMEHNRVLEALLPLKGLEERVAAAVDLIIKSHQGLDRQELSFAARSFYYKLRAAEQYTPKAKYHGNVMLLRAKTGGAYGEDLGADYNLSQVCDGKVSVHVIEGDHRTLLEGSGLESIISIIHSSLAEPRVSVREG

Protein skinhead-1 = molecular target: T3, Protein skinhead-1 (Caenorhabditis elegans, UniProt P34707); type: functional
T3 sequence (P34707 whole entry): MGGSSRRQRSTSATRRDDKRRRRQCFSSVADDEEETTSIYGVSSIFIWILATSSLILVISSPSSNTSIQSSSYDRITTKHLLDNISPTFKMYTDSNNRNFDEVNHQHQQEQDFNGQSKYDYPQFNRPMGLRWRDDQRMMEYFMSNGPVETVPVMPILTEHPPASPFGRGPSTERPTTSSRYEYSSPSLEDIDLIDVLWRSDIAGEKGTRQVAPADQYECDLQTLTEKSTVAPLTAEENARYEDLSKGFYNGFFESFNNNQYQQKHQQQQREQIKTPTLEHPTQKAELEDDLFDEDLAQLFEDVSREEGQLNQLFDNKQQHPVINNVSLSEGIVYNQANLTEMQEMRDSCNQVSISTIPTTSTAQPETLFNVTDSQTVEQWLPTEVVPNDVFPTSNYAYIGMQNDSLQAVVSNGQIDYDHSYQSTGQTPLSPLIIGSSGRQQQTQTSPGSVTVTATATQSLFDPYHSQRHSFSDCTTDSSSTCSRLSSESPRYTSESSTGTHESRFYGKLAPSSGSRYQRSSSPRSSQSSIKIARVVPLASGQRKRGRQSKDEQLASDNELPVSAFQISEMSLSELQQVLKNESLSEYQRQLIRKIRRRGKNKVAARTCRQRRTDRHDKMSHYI

Genome polyprotein = Genome polyprotein (dengue virus type 2, UniProt P29990); test: Dengue-2 NS5 methyltransferase inhibitors, primary screen, biochemical, confirmation dose response (AID 588689); type: functional
[2] = molecular target: FAD-linked sulfhydryl oxidase ALR (Homo sapiens, UniProt P55789); test: inhibitors of human ALR sulfhydryl oxidase, dose response, biochemical, H2O2 detection, luminescence, cherry-pick (AID 493248)
Sequence of FAD-linked sulfhydryl oxidase ALR (P55789 whole entry, the tested form may be a part): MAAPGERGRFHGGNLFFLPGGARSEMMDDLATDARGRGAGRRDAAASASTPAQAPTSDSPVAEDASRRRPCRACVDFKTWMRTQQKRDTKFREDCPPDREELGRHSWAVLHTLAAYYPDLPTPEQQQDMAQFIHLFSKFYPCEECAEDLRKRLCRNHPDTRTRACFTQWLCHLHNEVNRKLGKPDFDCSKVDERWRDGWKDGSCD

Fatty acid synthase [3] = molecular target: T2, Fatty acid synthase; test: FAS thioesterase domain inhibitors, dose response, biochemical, kinetic fluorescence intensity (AID 624326); type: functional;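 also: rate of fluorescence rise from hydrolysis of a fluorogenic O-methyl fluorescein ester substrate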
[4] = HEK293 cell cytotoxicity, dose response, cytotoxicity control, plate reader, cherry-picked samples (AID 743446); type: functional, cell-based
Vero [5] = test: cells; type: functional; details: Chlorocebus sabaeus
[6] = HepG2 cell cytotoxicity, dose response, cytotoxicity control, plate reader, cherry-pick, antagonist series (AID 743416); type: functional, cell-based
[7] = MC4R antagonists, dose response, counter-screen for LGR2 antagonist project, cell-based, plate reader, cherry pick (AID 743444); type: functional;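 also: transfected HEK 293 cells stimulated with alpha-MSH peptide; potency of inhibitors of the alpha-MSH evoked signal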
[8] = LGR2 antagonists, dose response, cell-based, HEK293, CRE-luciferase reporter, cherry pick, set 2 (AID 743343); type: functional;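 also: transfected cells were stimulated with diluted bursicon conditioned medium after compound addition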
[9] = A549 cell cytotoxicity, dose response, cytotoxicity control, plate reader, cherry-pick, antagonist series (AID 743412); type: functional, cell-based
Vero [10] = test: cells; type: functional, cell-based; details: Chlorocebus sabaeus
[11] = inhibitors of clade B AD8 Env fusion, dose response, cell-based, cherry-pick (AID 652062); type: functional;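 also: luciferase signal from cell-cell fusion driven by HIV-1 clade B AD8 Env; potency is for inhibitors of fusion seen as a drop in luminescence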
[12] = off-target signal loss in HeLa-CEM21 co-culture – HeLa F-luc CTL cells, cherry-picked, counter-screen for HIV-1 Env fusion inhibitor project, dose response (AID 652040); type: functional, cell-based;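 also: potency for signal decrease marking cytotoxic or nonspecific inhibition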
[13] = inhibitors of HIV Env-driven cell fusion, dose response, cherry-pick (AID 652057); type: functional, cell-based
[14] = ZM109 Env clade C HIV-1 fusion inhibitors, dose response, HeLa effector, CEM target cells, luciferase, cherry-pick (AID 652058); type: functional, cell-based
[15] = Luminescence Cell-Based Dose Confirmation HTS to Identify Inhibitors of Platelet Dense Granule Release. [Related pubchem assays: 1663 (Primary HTS), 1678 (Summary of Project)]; type: functional
[16] = molecular target: Luciferin 4-monooxygenase (Photinus pyralis, UniProt P08659); test: firefly luciferase enzyme inhibitors, dose response, biochemical, luminescence (AID 1891)
[17] = HepG2 cell cytotoxicity, dose response, cytotoxicity control, ATP luminescence, cherry-pick, activator set 2 (AID 1053143); type: functional, cell-based
[18] = molecular target: T4, Heat shock factor protein 1 (Mus musculus, UniProt P38532); test: inhibition of MG132-induced HSE-luciferase signal, confirmation, cell-based, NIH3T3, luminescence, dose retest (AID 2382); type: functional;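 also: NIH3T3 fibroblasts with HSF1-driven luciferase reporter stressed by proteasome inhibitor MG132; luminescence from HSF1-driven luciferase expression after 8 hours of MG132 stress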
T4 sequence (P38532 whole entry): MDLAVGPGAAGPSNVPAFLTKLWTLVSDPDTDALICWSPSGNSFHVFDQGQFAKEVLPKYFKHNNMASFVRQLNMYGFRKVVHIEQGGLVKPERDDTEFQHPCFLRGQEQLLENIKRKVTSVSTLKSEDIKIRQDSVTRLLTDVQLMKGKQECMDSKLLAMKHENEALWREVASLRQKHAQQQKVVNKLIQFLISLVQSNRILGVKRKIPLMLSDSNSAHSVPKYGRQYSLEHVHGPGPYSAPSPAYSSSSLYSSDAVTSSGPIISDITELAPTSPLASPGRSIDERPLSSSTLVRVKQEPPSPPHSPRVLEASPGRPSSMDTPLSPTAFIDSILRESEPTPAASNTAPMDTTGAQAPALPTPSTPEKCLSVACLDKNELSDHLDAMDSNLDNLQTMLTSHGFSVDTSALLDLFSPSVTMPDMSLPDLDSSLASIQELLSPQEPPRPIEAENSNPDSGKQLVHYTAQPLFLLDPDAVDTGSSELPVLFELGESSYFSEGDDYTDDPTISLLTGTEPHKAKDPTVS

[19] = HEK293T cytotoxicity, dose response, cytotoxicity control for miR-122 modulator project, cell-based, activator set, cherry-pick (AID 720690); type: functional;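 also: HEK293T human cells scored for general mammalian cytotoxicity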
Cytochrome P450 2C19 = Cytochrome P450 2C19 (Homo sapiens, UniProt P33261); test: Cytochrome panel assay with activity outcomes. Panel member name: p450-cyp2c19 Compounds with AC50 equal or less than 10 uM are considered active; type: functional; details: read-out: AC50
Sequence of Cytochrome P450 2C19 (P33261 whole entry): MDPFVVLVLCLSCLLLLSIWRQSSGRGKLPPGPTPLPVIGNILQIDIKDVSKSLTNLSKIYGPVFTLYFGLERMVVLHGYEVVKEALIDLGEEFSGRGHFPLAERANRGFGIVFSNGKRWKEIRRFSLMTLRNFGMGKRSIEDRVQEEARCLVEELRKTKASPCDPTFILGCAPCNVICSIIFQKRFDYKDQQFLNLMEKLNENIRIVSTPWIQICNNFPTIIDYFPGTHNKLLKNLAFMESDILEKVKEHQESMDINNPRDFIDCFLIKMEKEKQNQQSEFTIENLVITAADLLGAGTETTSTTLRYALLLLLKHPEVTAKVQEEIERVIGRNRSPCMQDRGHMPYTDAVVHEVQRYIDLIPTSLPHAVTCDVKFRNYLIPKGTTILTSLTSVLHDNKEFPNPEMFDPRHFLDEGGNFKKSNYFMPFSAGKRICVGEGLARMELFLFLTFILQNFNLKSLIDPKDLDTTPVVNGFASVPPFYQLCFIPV

Cytochrome P450 1A2 = molecular target: T5, Cytochrome P450 1A2 (Homo sapiens, UniProt P05177);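 also: PubChem cytochrome P450 panel assay, CYP1A2 panel member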
T5 sequence (P05177 whole entry): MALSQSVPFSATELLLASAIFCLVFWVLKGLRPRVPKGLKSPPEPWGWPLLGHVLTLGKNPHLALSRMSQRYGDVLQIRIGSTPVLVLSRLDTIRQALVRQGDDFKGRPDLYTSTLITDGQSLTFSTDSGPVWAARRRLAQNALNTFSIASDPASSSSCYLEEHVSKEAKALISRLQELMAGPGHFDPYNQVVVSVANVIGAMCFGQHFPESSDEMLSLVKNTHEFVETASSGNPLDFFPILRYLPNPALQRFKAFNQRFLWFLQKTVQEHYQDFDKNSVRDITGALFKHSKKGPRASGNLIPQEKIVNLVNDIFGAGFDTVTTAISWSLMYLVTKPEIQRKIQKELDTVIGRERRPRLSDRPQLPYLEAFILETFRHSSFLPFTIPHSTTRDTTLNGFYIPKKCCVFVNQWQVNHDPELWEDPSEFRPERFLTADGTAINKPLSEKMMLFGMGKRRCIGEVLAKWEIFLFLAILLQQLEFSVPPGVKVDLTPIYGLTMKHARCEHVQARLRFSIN

Cytochrome P450 2C9 = Cytochrome P450 2C9 (Homo sapiens, UniProt P11712)
Sequence of Cytochrome P450 2C9 (P11712 whole entry): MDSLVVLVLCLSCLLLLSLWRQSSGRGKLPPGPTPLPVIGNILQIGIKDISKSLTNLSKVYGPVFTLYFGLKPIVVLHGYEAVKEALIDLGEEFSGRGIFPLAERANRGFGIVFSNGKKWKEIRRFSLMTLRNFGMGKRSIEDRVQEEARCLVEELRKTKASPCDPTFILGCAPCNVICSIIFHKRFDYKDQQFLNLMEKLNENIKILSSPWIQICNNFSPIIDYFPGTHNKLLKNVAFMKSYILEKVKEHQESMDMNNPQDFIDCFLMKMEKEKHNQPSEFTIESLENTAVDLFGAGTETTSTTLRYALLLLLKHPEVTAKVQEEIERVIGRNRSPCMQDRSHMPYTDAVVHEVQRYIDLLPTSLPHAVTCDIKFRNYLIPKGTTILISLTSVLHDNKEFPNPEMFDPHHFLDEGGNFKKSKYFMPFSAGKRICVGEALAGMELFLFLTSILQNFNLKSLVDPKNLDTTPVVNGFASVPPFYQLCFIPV

Cytochrome P450 2D6 = Cytochrome P450 2D6 (Homo sapiens, UniProt P10635);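 also: CYP2D6 member of a cytochrome P450 panel assay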
Sequence of Cytochrome P450 2D6 (P10635 whole entry): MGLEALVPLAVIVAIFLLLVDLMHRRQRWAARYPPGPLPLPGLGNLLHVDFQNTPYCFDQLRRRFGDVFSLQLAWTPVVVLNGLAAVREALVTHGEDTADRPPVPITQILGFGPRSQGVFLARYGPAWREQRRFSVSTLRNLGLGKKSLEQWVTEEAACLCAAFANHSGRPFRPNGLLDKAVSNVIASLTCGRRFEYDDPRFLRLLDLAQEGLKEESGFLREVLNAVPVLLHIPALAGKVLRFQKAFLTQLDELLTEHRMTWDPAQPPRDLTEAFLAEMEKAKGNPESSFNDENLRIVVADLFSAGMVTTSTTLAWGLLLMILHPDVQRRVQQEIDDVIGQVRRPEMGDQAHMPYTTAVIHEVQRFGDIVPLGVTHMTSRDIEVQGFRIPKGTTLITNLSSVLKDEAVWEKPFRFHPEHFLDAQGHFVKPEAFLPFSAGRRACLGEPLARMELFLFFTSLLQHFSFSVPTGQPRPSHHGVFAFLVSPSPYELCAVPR

[20] = HepG2 cell cytotoxicity, dose response, cytotoxicity control for Shn3 inhibitor project, CellTiter-Glo, cherry-picked (AID 624134); type: functional, cell-based
[21] = microbe, parasite or virus in culture; type: functional; details: Mycobacterium tuberculosis
[22] = control 3'UTR Renilla luciferase suppression, dose response, counter-screen for Shn3 inhibitor project, cell-based, Clone20-Shn3RL, cherry-picked (AID 624133); type: functional
[23] = Shn3 3'UTR reporter inhibitors, dose response, cell-based, Clone20 osteoblasts, firefly luciferase, cherry-picked (AID 624132); type: functional;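 also: firefly luciferase luminescence from reporter carrying the Shn3 3'UTR in osteoblasts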
[24] = molecular target: T6, Carboxy-terminal domain RNA polymerase II polypeptide A small phosphatase 1 (Homo sapiens, UniProt Q9GZU7); test: inhibitors of CTDSP1, concentration-response testing, biochemical assay, absorbance-based, actives from ultra-high-throughput screening (AID 540297); type: functional
T6 sequence (Q9GZU7 whole entry): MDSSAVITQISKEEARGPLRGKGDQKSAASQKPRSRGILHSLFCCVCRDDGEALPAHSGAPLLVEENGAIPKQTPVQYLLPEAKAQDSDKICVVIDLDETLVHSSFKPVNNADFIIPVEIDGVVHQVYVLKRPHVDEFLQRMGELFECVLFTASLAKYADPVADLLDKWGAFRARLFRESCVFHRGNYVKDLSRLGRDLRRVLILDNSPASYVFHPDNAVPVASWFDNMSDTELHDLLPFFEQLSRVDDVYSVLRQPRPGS

[25] = molecular target: Induced myeloid leukemia cell differentiation protein Mcl-1 (Homo sapiens, UniProt Q07820); type: functional
Sequence of Induced myeloid leukemia cell differentiation protein Mcl-1 (Q07820 whole entry): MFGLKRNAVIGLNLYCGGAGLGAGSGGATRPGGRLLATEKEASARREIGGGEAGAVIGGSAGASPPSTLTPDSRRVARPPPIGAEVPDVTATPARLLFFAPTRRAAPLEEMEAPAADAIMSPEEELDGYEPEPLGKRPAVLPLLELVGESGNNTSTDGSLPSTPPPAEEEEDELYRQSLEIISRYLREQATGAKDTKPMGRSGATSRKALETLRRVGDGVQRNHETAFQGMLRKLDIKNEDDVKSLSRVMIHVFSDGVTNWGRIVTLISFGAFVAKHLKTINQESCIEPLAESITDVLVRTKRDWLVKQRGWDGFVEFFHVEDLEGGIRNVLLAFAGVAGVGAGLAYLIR

cells [26] = type: functional, cell-based
cells [27] = type: functional, cell-based; remark: listed apart in the source

## Cc1occc1C(=O)Nc1sc2c(c1C(N)=O)CCCCC2
Leucine aminopeptidase
  IC50: 54.6 µM (active)

## O=C(CCN1C(=O)/C(=C/c2ccccc2Cl)SC1=S)Nc1ccccc1C(=O)O
Fatty acid synthase [1]
  IC50: 6.5 µM (active)
Protein skinhead-1
  IC50: > 100 µM (inactive)
Genome polyprotein
  IC50: 77.7 µM (active)
[2]
  AC50: 2.46 µM (active)
Fatty acid synthase [3]
  IC50: 5.37 µM (active)

## CCC1=C(CC2NCCc3ccccc32)CC2c3cc(OC)c(OC)cc3CCN2C1 (stereo not drawn)
[4]
  AC50: 33.6 µM (active)
Vero [5]
  CC50: 5.14 µM (active)
[6]
  AC50: 4.16 µM (active)
[7]
  AC50: 7.63 µM (active)
[8]
  AC50: 6.49 µM (active)
[9]
  AC50: 2.13 µM (active)
Vero [10]
  IC50: > 25 µM (active)

## CC(C)CN(C(=O)C(c1ccccc1)c1ccccc1)c1c(N)n(CC(C)C)c(=O)[nH]c1=O
[11]
  AC50: 1.91 µM (active)
[12]
  AC50: 1.72 µM (active)
[13]
  AC50: 1.62 µM (active)
[14]
  AC50: 0.619 µM (active)

## Cc1ccc(C(=O)C[n+]2ccccc2C)cc1[N+](=O)[O-]
Vero [10]
  IC50: 5.84 µM (active)

## N=c1c2c(ncn1CCCO)Oc1c(ccc3ccccc13)C2c1ccccc1 (stereo not drawn)
[15]
  EC50: > 112 µM (not active)
Vero [5]
  CC50: 15.4 µM (active)
[16]
  EC50: > 112 µM (not active)
[17]
  AC50: 26 µM (active)
[18]
  EC50: > 195 µM (not active)

## Cc1ccccc1-c1ccc([C@@H]2[C@@H](CO)N3CCCCN(C(=O)Nc4ccc(F)cc4)C[C@@H]23)cc1
[19]
  AC50: 31.1 µM (active)

## COc1ccccc1/C=C/C=N/N1CCN(Cc2ccc(Cl)cc2)CC1.Cl
Cytochrome P450 2C19
  AC50: 6.31 µM (inconclusive)
Cytochrome P450 1A2
  AC50: 15.8 µM (inconclusive)
Cytochrome P450 2C9
  AC50: inconclusive
Cytochrome P450 2D6
  AC50: 8.91 µM (inconclusive)

## Oc1cc(Nc2ccccc2)cc2cccnc12
[20]
  AC50: 36 µM (active)
[21]
  CC50: 7.2 µM (active)
[22]
  AC50: 6.62 µM (active)
[23]
  AC50: 1.79 µM (active)

## COC(=O)c1c(C)oc(C)c1S(=O)(=O)NC(c1ccccc1)c1ccccc1
[11]
  AC50: 6.05 µM (active)
[12]
  AC50: 6.55 µM (active)
[13]
  AC50: 5.64 µM (active)
[14]
  AC50: 6.38 µM (active)

## COc1cc(NC(=O)c2cccs2)ccc1NC(=O)c1ccco1
[17]
  AC50: 12 µM (active)

## COc1ccccc1NC(=O)Nc1nc(C(N)Cc2ccc(C(F)(F)F)cc2)cs1 (stereo not drawn)
[20]
  AC50: 25.1 µM (active)
[22]
  AC50: 24 µM (active)
[23]
  AC50: 10.3 µM (active)

## COc1ccc(C(CC(=O)N2CCCC2)c2c(OC)cc(OC)c3c(-c4ccccc4)cc(=O)oc23)cc1 (stereo not drawn)
[24]
  IC50: 9.82 µM (active)
[25]
  IC50: 4.62 µM (active)

## CN(C)C1=NC[C@H](Cc2ccccc2)N1CCCC1CCCC1
[20]
  AC50: > 70 µM (inactive)
[22]
  AC50: 2.5 µM (active)
[23]
  AC50: 2.63 µM (active)

## O=C(Nc1ncccc1O)c1ccc2c(c1)OCO2
Cells [26]
  EC50: 99.2 µM (active)
Cells [27]
  EC50: 51.7 µM (active)
[17]
  AC50: 26 µM (active)
